Results from US20070049588A1, “ATM INHIBITOR” (priority 2005, published 2007).
Read-outs that look alike come from different tables or passages of the source.

Assays:
[1] = Maximum single tolerable intravenous dose in mice; settings: both sexes, mouse, in vivo, highest dose without clinical signs in 4 animals, read-out: Mouse MTD (i.v.)
Experimental: (§1) The maximum single tolerable intravenous dose which could be administered to rats and mice was determined. Escalating doses of each compound were given to discrete, naive pairs of animals (1 male and 1 female) until a dose that elicited clinical signs, was reached. Then for each compound, two further animals were then treated with the highest dose that had not produced any clinical signs. […]

[2] = Maximum single tolerable intravenous dose in rats; settings: both sexes, rat, in vivo, highest dose without clinical signs in 4 animals, read-out: Rat MTD (i.v.)
Experimental: as §1

[3] = Tissue pharmacokinetics, plasma and tumour concentrations; assay type: in vivo; settings: mouse, ip, mice, 50 mg/kg i.p., mean; for concentration at 1 h: 1 hr post-dose; for concentration at 4 h: 4 hr post-dose
Experimental: In order to assess tissue pharmacokinetics, a single intraperitoneal (i.p.) dose of 50 mg/kg of each compound was administered to discrete groups of mice. Blood and tumour samples were taken (three mice per time point) at 1 and 4 hours post-dose. The concentration of each compound in both matrices at both time points was determined by HPLC-MS/MS analysis using the method described above for Example 6. The mean concentrations found are presented below.

[4] = Oral bioavailability in mice; assay type: in vivo; settings: mouse, plasma, 10 mg/kg oral vs intravenous, AUC ratio
Experimental: In order to assess the oral bioavailability of compounds (Ia)-(IV), the compounds were dissolved to 5 mg/ml in an aqueous formulation which was then dosed orally and intravenously at 10 mg/kg to discrete groups of mice. For the intravenously dosed animals, blood samples were taken (three mice per time point) at 3, 5, 15, 30, 60, 120, 240 and 360 minutes post-dose. For the orally dosed animals, blood samples were taken (three mice per time point) at 5, 15, 30, 60, 120, 240 and 360 minutes post-dose. The plasma concentration of each compound at all time points, for both dose routes, was determined by HPLC-MS/MS analysis. The details of the HPLC-MS/MS method are as follows.
Sample was extracted for analysis by homogenisation of tissue, if required, vortex mixing and then centrifugation to produce a compound-containing supernatant that can be assayed by HPLC-MS/MS. Quantitation was achieved by comparison to a serial dilution of a known amount of parent compound. The chromatographic and MS conditions used are given below.
MS conditions were determined by infusing compound dissolved in 50:50 acetonitrile:formic acid (0.01%).
Total exposure as indicated by area under the curve (AUC) was calculated. By definition, intravenous delivery results in 100% bioavailability and the comparative bioavailability obtained through oral delivery is calculated by: [formula]

[5] = Clonogenic survival assays with chemotherapeutics; assay type: cell-based; settings: in vitro clonogenic survival assays
HIV = test: HIV-based LUCIA assay, repression of retroviral infection; assay type: cell-based; settings: Human immunodeficiency virus 1
Experimental: The ability of compound (Ia) to repress retroviral infections was assessed using an HIV-based LUCIA assay. The LUCIA assay was carried out as described in WO 03/070726 (see pages 125-126 therein), which is incorporated herein by reference.

[6] = plasma, read-out: Plasma concentration
[7] = tumour, read-out: Tumour concentration

Question: With `CN1CCN(CCC(=O)Nc2ccc3c(c2)Cc2cccc(-c4cc(=O)cc(N5CCOCC5)o4)c2S3)CC1` [Compound (II)] as the compound, how does the MTD [1] read?
Answer: The MTD was < 40 mg/kg.

Question: And the MTD [2]?
Answer: The MTD was 40 mg/kg.

Question: What about the concentration at 1 h [3, 6] of the same compound?
Answer: The concentration at 1 h was 3030 ng/mL.

Question: What about the concentration at 4 h [3, 6] of the same compound?
Answer: The concentration at 4 h was 137 ng/mL.

Question: And the concentration at 1 h [3, 7]?
Answer: The concentration at 1 h was 2810 ng/g.

Question: And the concentration at 4 h [3, 7]?
Answer: The concentration at 4 h was 1060 ng/g.

Question: What about the bioavailability [4] of the same compound?
Answer: The bioavailability was 0%.

Question: What does the source list for `CN1CCN(CCC(=O)Nc2ccc3c(c2)Sc2cccc(-c4cc(=O)cc(N5CCOCC5)o4)c2S3)CC1` [Compound (III)]?
Answer: MTD [1]: < 40 mg/kg; MTD [2]: 75 mg/kg; concentration at 1 h [3, 6]: 2030 ng/mL; concentration at 4 h [3, 6]: 626 ng/mL; concentration at 1 h [3, 7]: 1730 ng/g; concentration at 4 h [3, 7]: 2190 ng/g; bioavailability [4]: 0%

Question: What does the source list for `CC(C)N1CCN(CCC(=O)Nc2ccc3c(c2)Sc2cccc(-c4cc(=O)cc(N5CCOCC5)o4)c2S3)CC1` [Compound (IV)]?
Answer: MTD [1]: < 40 mg/kg; concentration at 1 h [3, 6]: 1920 ng/mL; concentration at 4 h [3, 6]: 383 ng/mL; concentration at 1 h [3, 7]: 899 ng/g; concentration at 4 h [3, 7]: 1090 ng/g; bioavailability [4]: 0%

Question: With `C[C@@H]1CN(CC(=O)Nc2ccc3c(c2)Cc2cccc(-c4cc(=O)cc(N5CCOCC5)o4)c2S3)C[C@H](C)O1` [Compound (Ia), 2-((2R,6S)-2,6-Dimethyl-morpholin-4-yl)-N-[5-(6-morpholin-4-yl-4-oxo-4H-pyran-2-yl)-9H-thioxanthen-2-yl]-acetamide] as the compound, how does the “Potentiation of cytotoxic effects of etoposide, camptothecin and doxorubicin” value [5] read?
Answer: The value was “potentiate the cytotoxic effects”.

Question: What about the MTD [1] of the same compound?
Answer: Its MTD is 75 mg/kg.

Question: What about the MTD [2] of the same compound?
Answer: The MTD was > 100 mg/kg.

Question: What about the concentration at 1 h [3, 6] of the same compound?
Answer: The concentration at 1 h was 31800 ng/mL.

Question: And the concentration at 4 h [3, 6]?
Answer: Its concentration at 4 h is 5960 ng/mL.

Question: What about the concentration at 1 h [3, 7] of the same compound?
Answer: The concentration at 1 h was 19700 ng/g.

Question: What about the concentration at 4 h [3, 7] of the same compound?
Answer: Its concentration at 4 h is 4140 ng/g.

Question: And the bioavailability [4]?
Answer: Its bioavailability is 37%.

Question: What about the IC50 (HIV) of the same compound?
Answer: Its IC50 is 1300 nM.
